From PMC11306511, “Combining VPS34 inhibitors with STING agonists enhances type I interferon signaling and anti‐tumor efficacy” (Molecular Oncology, 2024)

Key:
[1] = In vivo mouse PK
Procedure: Experiments were conducted at Aragen Life Sciences Ltd. (Hyderabad, India) according to internal standard procedures.

[2] = PK profiling in H1299-GFP-2xFYVE tumor-bearing mice (plasma and tumor); format: in vivo, mouse
Procedure: (§1) The study was performed by Truly Translational AB (Lund, Sweden) following Swedish legislations and approved by the ethical committee Malmö/Lunds djurförsöksetiska nämnd (M120‐15). Animals were housed 5/cage in polysulfone IVC cages at a constant temperature with 12 h light‐dark cycles and free access to food, tap water, and cage enrichment. Animals were allowed to acclimatize to the housing conditions for at least a week before the start of experiments. Female 8‐week‐old NOD.Cg‐Prkdc^ scid Il2rg^ tm1Sug /JicTac (CIEA‐NOG®) mice (supplied by Taconic Biosciences, Rensselaer, NY, USA; n = 42) were implanted subcutaneously with 1.75 × 10^6 H1299‐GFP2xFYVE cells in serum‐free RPMI in 50% Matrigel. When tumors reached 300–400 mm^3 mice were randomized and dosed with 9 or 29 mg·kg^−1 SB02024 or vehicle (PEG 200 (98%)/Polysorbate (2%)). At indicated time points after dosing, blood samples were taken by heart puncture and tumors were removed. Pharmacokinetic (PK) analysis (plasma and tumor samples) was performed by Q&Q Labs (Gothenburg, Sweden). Plasma was precipitated with acetonitrile, and after centrifugation, the soluble material was recovered. Tumor of 50–150 mg was homogenized mechanically in the presence of 5× acetonitrile relative to tissue weight using Precellys Tissue Homogenizer (Bertin Technologies, Montigny‐le‐Bretonneux, France). Samples were centrifuged and soluble material was kept for further analysis. SB02024 levels were determined using UHPLC‐QQQ: Agilent 6460 (LC–MS/MS; Agilent Technologies, Santa Clara, CA, USA). Pharmacodynamic (PD) analysis of GFP2xFYVE punctae was performed by Offspring Biosciences (Södertalje, Sweden). H1299‐GFP2xFYVE tumors were fixed by immersion in 4% formalin in PBS for 72 h at 4 °C, sampled randomly by six biopsies (diameter 1 mm), and reassembled into three separate tumor microarrays (TMAs). Each TMA block was sectioned and analyzed at eight equally spaced levels. The immunohistochemical staining was performed using the Ventana Discovery XT protocol. […]

[3] = tested on: VPS34 activity; assay: PD: GFP-2xFYVE puncta in H1299 tumors (immunohistochemistry); format: in vivo, mouse; settings: 9 or 29 mg·kg^−1 oral
Procedure: as §1, with “Tumor of 50–150 mg was homogenized mechanically in the presence of 5× acetonitrile relative to tissue weight using Precellys Tissue Homogenizer (Bertin Technologies, Montigny‐le‐Bretonneux, France). Samples were centrifuged and soluble material was kept for further analysis.” left out, “Pharmacodynamic (PD) analysis of GFP2xFYVE punctae was performed by Offspring Biosciences (Södertalje, Sweden). H1299‐GFP2xFYVE tumors were fixed by immersion in 4% formalin in PBS for 72 h at 4 °C, sampled randomly by six biopsies (diameter 1 mm), and reassembled into three separate tumor microarrays (TMAs).” left out, “levels.” for “levels. The immunohistochemical staining was performed using the Ventana Discovery XT protocol.”

[4] = tested on: CCL5 and CXCL10; assay: Plasma CCL5/CXCL10 in Renca tumor-bearing mice (Mesoscale Discovery); format: in vivo, mouse; settings: Renca tumor-bearing BALB/c mice, 20 mg·kg^−1 oral daily, vs vehicle
Source text: Study protocols were approved by the Institutional Animal Care and Use Committee of CrownBio in China (AN‐1903‐05‐313) or the LIH's animal welfare committee in Luxembourg (agreement LECR‐2018‐12). Mice were handled according to European Union guidelines, adhering to the principles of replacement, reduction, and refinement (3Rs). Animals were housed in appropriate accommodations conducive to their well‐being, with provisions for housing, feeding, and environmental enrichment to meet their physical and behavioral needs. Highly skilled personnel were involved in carrying out procedures related to the animal experiments to ensure proper care and handling. […] Tumor growth was measured using a caliper every other day and estimated as follows: volume (cm^3) = (width)^2 × length × 0.5.
Cell culture medium was centrifuged at 300 g for 10 min at 4 °C and supernatant stored at −80 °C. […] Cytokine levels were quantified using Mesoscale Discovery (MSD) assays: human CCL5 (#F21ZN), CXCL10 (#K151UFK), IFNβ (#K151VIK); mouse CCL5 (#K152A2K) and CXCL10 (#K152UFK). Low concentrations of human IFNβ were determined using High‐Sensitivity IFNβ ELISA (#41415‐1; PBL Assay Science, Piscataway, NJ, USA). CCL5/CXCL10 levels in some experiments were quantified using R&D Systems (Minneapolis, MN, USA) ELISAs: human CCL5 (#DY278) or CXCL10 (#DY266); mouse CCL5 (#DY478).

[5] = tested on: Renca tumors; assay: NanoString gene expression and network enrichment analysis of Renca tumors; format: in vivo, mouse
Source text: (§2) Study protocols were approved by the Institutional Animal Care and Use Committee of CrownBio in China (AN‐1903‐05‐313) or the LIH's animal welfare committee in Luxembourg (agreement LECR‐2018‐12). Mice were handled according to European Union guidelines, adhering to the principles of replacement, reduction, and refinement (3Rs). Animals were housed in appropriate accommodations conducive to their well‐being, with provisions for housing, feeding, and environmental enrichment to meet their physical and behavioral needs. Highly skilled personnel were involved in carrying out procedures related to the animal experiments to ensure proper care and handling. Female 6 to 8‐week‐old BALB/c (supplied by Shanghai Lingchang Biotechnology Co., Shanghai, China; n = 14) or C57BL/6 mice (supplied by Janvier Labs, Le Genest‐Saint‐Isle, France; n = 40) were injected into the right flank with 1 × 10^6 Renca or 0.2 × 10^6 B16‐F10 cells, respectively, resuspended in 100 μL PBS (day 0). When tumors were palpable (day 9 for Renca, day 7 for B16‐F10 tumors), mice were randomly assigned into two groups for the Renca model with n = 6 (vehicle) and n = 8 (SB02024) or four groups for the B16‐F10 model with n = 10. Daily treatment with 20 mg·kg^−1 SB02024 or vehicle (0.5% methylcellulose in water supplemented with 1% Tween‐80) was administered by oral gavage (day 9–16 for Renca, day 7–16 for B16‐F10 model). For combination studies, ADU‐S100 (10 μg in 40–50 μL PBS) or vehicle (PBS) treatment was administered by intratumoral injection (days 9, 11, 13, and 15). Tumor growth was measured using a caliper every other day and estimated as follows: volume (cm^3) = (width)^2 × length × 0.5.
Renca tumor RNA was isolated using the Rneasy Plus kit (#74134; Qiagen, Venlo, the Netherlands), quantified using a NanoDrop spectrophotometer (Thermo Fisher), and 100 ng was used as input for the nCounter PanCancer IO 360 mouse panel (NanoString Technologies, Seattle, WA, USA). Data were analyzed by NanoString's data analysis service. Network enrichment analysis (NEA) was carried out by Evi‐networks, Sweden (see detailed description in Table S2).

[6] = tested on: A-498 cells; assay: IFN/cytokine gene expression (qRT-PCR) and secretion (MSD) in A-498 cells; format: cell-based, human; settings: 2 μM, 24 h, vs DMSO
Procedure: (§3) RNA was isolated using the PureLink kit (#12183018A; Thermo Fisher) and DNA‐binding columns (Rneasy plus kit, #74134; Qiagen) and/or Dnase treatment (#12185010; Thermo Fisher). After quantification using NanoDrop, 50 ng·μL^−1 RNA was used for cDNA synthesis with SuperScript IV VILO Master Mix (#11756050; Thermo Fisher). Quantitative RT‐PCR was run with diluted cDNA (1 : 25 or 1 : 12.5), PowerUp SYBR Green Master Mix (#A25741; Thermo Fisher), and 200 nM primers (see Table S3) on a CFX Connect RT‐PCR system (BioRad, Hercules, CA, USA). Data were analyzed using the ΔΔCT method.
(§4) Cell culture medium was centrifuged at 300 g for 10 min at 4 °C and supernatant stored at −80 °C. Mouse blood was collected at termination in K2‐EDTA tubes on ice, centrifuged at 1270 g for 10 min at 4 °C, and plasma was stored at −80 °C. Cytokine levels were quantified using Mesoscale Discovery (MSD) assays: human CCL5 (#F21ZN), CXCL10 (#K151UFK), IFNβ (#K151VIK); mouse CCL5 (#K152A2K) and CXCL10 (#K152UFK). Low concentrations of human IFNβ were determined using High‐Sensitivity IFNβ ELISA (#41415‐1; PBL Assay Science, Piscataway, NJ, USA). CCL5/CXCL10 levels in some experiments were quantified using R&D Systems (Minneapolis, MN, USA) ELISAs: human CCL5 (#DY278) or CXCL10 (#DY266); mouse CCL5 (#DY478).

[7] = tested on: B16-F10 cells; assay: IFN/cytokine gene expression (qRT-PCR) and secretion (MSD) in B16-F10 cells; format: cell-based, murine; settings: 2 μM, 24 h, vs DMSO
Procedure: as §3, §4

[8] = tested on: Me30966 cells; assay: Gene expression (qRT-PCR) in Me30966 cells; format: cell-based, human; settings: 2 μM, 24 h, vs DMSO
Procedure: (A) IFNB1 gene expression quantified by qRT-PCR after 24h treatment with DMSO control or 2 µM of VPS34 inhibitor
(=VPS34i, SB02024 or SAR405) in Me30966 cells.

[9] = tested on: B16-F10 tumors; assay: Tumor growth inhibition study, B16-F10 tumor-bearing mice; format: in vivo, mouse; settings: B16-F10 in C57BL/6 mice; SB02024 20 mg·kg^−1 oral daily day 7-16; ADU-S100 10 μg intratumoral days 9, 11, 13, 15
Source text: as §2, with “Daily treatment with 20 mg·kg^−1 SB02024 or vehicle (0.5% methylcellulose in water supplemented with 1% Tween‐80) was administered by oral gavage (day 9–16 for Renca, day 7–16 for B16‐F10 model). For combination studies, ADU‐S100 (10 μg in 40–50 μL PBS) or vehicle (PBS) treatment was administered by intratumoral injection (days 9, 11, 13, and 15).” left out

[10] = 20 mg·kg^−1, NanoString, vs vehicle

With `C[C@@H]1COCCN1c1cc(N2CCCC[C@@H]2C(F)(F)F)[nH]c(=O)c1` [SB02024] the half-life ([1]; in vivo mouse PK, read-out: t½ (converted)) was 69 min, the “in vitro and in vivo clearance (in words)” value ([1]; mouse, in vivo) was “low” and the bioavailability ([1]; po, in vivo mouse PK) was 96%. The Cmax ([2]; female, NOD.Cg-Prkdc scid Il2rg tm1Sug/JicTac (CIEA-NOG), mouse, oral 29 mg·kg^−1, plasma and tumor, H1299-GFP-2xFYVE tumor-bearing CIEA NOG mice) was roughly 10 µM, the half-life ([2]; female, NOD.Cg-Prkdc scid Il2rg tm1Sug/JicTac (CIEA-NOG), mouse, oral 29 mg·kg^−1, tumor and plasma concentrations) was 150 min and the “time of Cmax” value ([2]; oral 29 mg·kg^−1, plasma and tumor) was 2 h. For the same molecule, the “duration of inhibition of GFP-2xFYVE puncta formation” value [3] was “about 8 h”, the “GFP-2xFYVE puncta (autophagosome and endosome) formation in H1299 tumors” value ([3]; after 2 h) was “inhibited” and the “CCL5 and CXCL10 in blood plasma” value [4] was “significant increase”. For the same molecule, the “Ptprc gene expression (CD45+ cells) in Renca tumors” value [5, 10] was “significantly increased”, the “gene signatures for cytotoxic cells, T cells, total and CD56dim NK cells, macrophages, neutrophils” value [5, 10] was “significant increase” and the “Reactome gene signature for STING-mediated signaling, enrichment” value ([5]; NEA, r-mmu-3134975 as printed, treated tumors vs vehicle controls) was “enrichment”. For the same molecule, the “STAT1 and IFN gene signature for ICB sensitivity (Zemek et al.), enrichment” value ([5]; NEA, treated tumors vs vehicle controls) was “significantly enriched”, the “transcription of IFNB1 and ISGs IRF1, IRF7, IRF9” value [6] was “significantly increased” and the “transcription of IFNB1 and ISGs IRF1, IRF7, IRF9” value [7] was “significantly increased”. The IFNB1 expression [8] was “significantly increased” and the “% TGI (percent tumor growth inhibition compared to vehicle control)” value [9] was 27%.
